Molecular target: T1, BRD9-GFP (Homo sapiens, UniProt Q9H8M2)
T1 construct: CHYSEL (2A cis-acting hydrolase element) remnant after GFP; mCherry is split off as a separate protein (C); expressed in transfected cells; host or cells: HEK293A cells (Invitrogen R70507), lentiviral transduction with pLenti6-BRD9-GFP-CHYSEL-mCherry, blasticidin selection
T1 sequence (Q9H8M2 1-597): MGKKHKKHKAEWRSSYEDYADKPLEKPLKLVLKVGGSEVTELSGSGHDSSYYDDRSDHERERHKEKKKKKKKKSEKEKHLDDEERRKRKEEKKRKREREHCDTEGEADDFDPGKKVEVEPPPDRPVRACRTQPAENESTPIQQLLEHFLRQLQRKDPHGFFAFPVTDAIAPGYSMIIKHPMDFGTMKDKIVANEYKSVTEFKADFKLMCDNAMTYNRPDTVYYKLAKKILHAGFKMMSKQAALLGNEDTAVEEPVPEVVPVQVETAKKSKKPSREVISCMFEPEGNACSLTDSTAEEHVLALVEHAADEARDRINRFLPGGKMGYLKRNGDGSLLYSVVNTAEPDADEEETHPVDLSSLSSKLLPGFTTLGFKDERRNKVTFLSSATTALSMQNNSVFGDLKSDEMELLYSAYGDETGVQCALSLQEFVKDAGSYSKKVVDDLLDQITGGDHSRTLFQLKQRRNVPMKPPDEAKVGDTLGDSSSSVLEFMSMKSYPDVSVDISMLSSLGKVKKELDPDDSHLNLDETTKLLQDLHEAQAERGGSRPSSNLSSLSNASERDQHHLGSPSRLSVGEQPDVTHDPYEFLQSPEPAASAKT
Experiment: BRD9-GFP protein abundance flow cytometry assay in HEK293A cells
Format: cell-based
Details: HEK293A-BRD9-GFP-CHYSEL-mCherry cells; for BRD9 Deg Amax %: 24 h, % protein remaining at the concentration at which maximum degradation is seen; for DC50: 24 h at 37° C., 10-point 1:3 dilution, concentration at which 50% maximal degradation was observed
Protocol: Compounds of the invention were tested in the following cellular assays. The terms in Table 1 are defined as follows: DC50 refers to the concentration at which 50% maximal degradation was observed; deg Amax is the extent of degradation and the value refers to the % protein remaining at the concentration at which maximum degradation is seen.
BRD9-GFP protein abundance flow cytometry assay in HEK293A cells: Degradation of BRD9 was measured in HEK293A cells expressing BRD9-GFP and mCherry from a stably integrated second generation bicistronic BRD9-GFP-CHYSELmCherry construct. Reduction of the GFP signal measured by flow cytometry served as readout for BRD9 degradation after degrader treatment.
The bicistronic BRD9-GFP-CHYSEL-mCherry construct is based on a pLenti6-DEST vector backbone where a GFP-CHYSEL-mCherry cassette was synthesized and inserted downstream of the DEST cassette by Gibson assembly resulting in the new gateway compatible vector pLenti6-DEST-GFP-CHYSEL-mCherry to allow Gateway cloning with pENTR221-BRD9 (w/o ATG) to obtain the final sensor construct pLenti6-BRD9-GFP-CHYSEL-mCherry.
HEK293 Å-BRD9-GFP-CHYSEL-mCherry sensor cells were generated by lentiviral vector transduction using the pLenti6-BRD9-GFP-CHYSEL-mCherry sensor construct described before. […] The mix was incubated for another 20 min at RT and then added to 1 ml of a freshly prepared suspension of HEK293FT cells in a well of a 6-well plate (concentration 1.2×10^6 cells/ml). 1 day after transfection, the medium was replaced with 1.5 ml of complete growth medium (DMEM high Glucose+10% FCS+1% L-Glutamine+1% NEAA+1% NaPyr.). 48 h post transfection supernatant containing viral transducing particles was collected and frozen at −80° C. […] Infection was performed with […] of collected supernatant containing viral transducing particles in 1 ml medium including 8 μg/ml polybrene. 24 h post infection, stably transfected cells were selected with blasticidin at a concentration of 8 μg/ml.
Stable HEK293 Å-BRD9-GFP-CHYSEL-mCherry cells were maintained in complete growth medium (DMEM high Glucose+10% FCS+1% L-Glutamine+1% NEAA+1% NaPyr.) with passaging performed twice per week. On Day 0, HEK293 Å-BRD9-GFP-CHYSEL-mCherry cells were seeded at 10,000 cells/well in a 96-well microtiter plate in […] complete medium. On Day 1, cells were treated in duplicate with 10-point 1:3 dilution series of compound using the HP D300 Digital Dispenser (Tecan). DMSO concentrations were normalized across the plate to 0.1%. On Day 2, after 24 h of incubation at 37° C., treatment media was discarded, cells rinsed with 100 ul/well PBS and then detached using 40 ul trypsin/well for 5 min. Trypsin was neutralized with 100 ul/well PBS+20% FCS). Flow cytometry was performed on the samples using the Beckman Coulter CytoFLEX flow cytometer. Cell identification was then performed using forward (FSC) vs. side scatter (SSC) plots. Single cell discrimination is performed using FSC-Width (FSC-W) vs. FSC-Height (FSC-H) plots. Median GFP/mCherry ratio values for 5,000 single cells are used to determine BRD9 levels. Median GFP/mCherry ratio values from HEK293 Å-mCherry are used as a background signal and thus defining 0% BRD9 signal. Median GFP/mCherry ratio values from DMSO treated HEK293 Å-BRD9-GFP-CHYSEL-mCherry are used to define 100% BRD9 signal for subsequent DC50 curves (concentration at 50% BRD9 degradation). Concentration response curves plotting relative reduction of the GFP/mCherry ratio signal (measured by flow cytometry) versus 10 compound concentrations (starting concentration […], 3 fold dilution steps) of the compounds allowed generation of DC50 values. Data is shown in Tables 2 and 3, in which, DC50 refers to the concentration at which 50% maximal degradation was observed; deg Amax is the extent of degradation and the value refers to the % protein remaining at the concentration at which maximum degradation is seen.

Compound | BRD9 Deg Amax % | DC50
CCCCn1cc(-c2ccc(O[C@H]3CCN(CC4CCN(C(=O)c5ccc(OC)c(N6CCC(=O)NC6=O)c5)CC4)C[C@@H]3F)c(F)c2)c2ccncc2c1=O [Compound E16, 1-(5-(4-(((3S,4S)-4-(4-(2-butyl-1-oxo-1,2-dihydro-2,7-naphthyridin-4-yl)-2-fluorophenoxy)-3-fluoropiperidin-1-yl)methyl)piperidine-1-carbonyl)-2-meth-oxyphenyl)dihydro-pyrimidine-2,4(1H,3H)-dione] | 16.58% | 1 nM
COc1cc(-c2cc(C)c(=O)n(C)c2)ccc1C(=O)N1CCN(CC2CCN(C(=O)c3ccc(OC)c(N4CCC(=O)NC4=O)c3)CC2)CC1 [Compound A3, 1-(5-(4-((4-(4-(1,5-Dimethyl-6-oxo-1,6-dihydropyridin-3-yl)-2-methoxybenzoyl)piperazin-1-yl)methyl)piperidine-1-carbonyl)-2-methoxyphenyl)dihydropyrimidine-24(1H,3H)-dione] | 12.29% | 68 nM
COc1cc(-c2cn(C)c(=O)c3cnccc23)c(OC)cc1CN1CCN(CC2CCN(C(=O)c3ccc(OC)c(N4CCC(=O)NC4=O)c3)CC2)CC1 [Compound A23, 1-(5-(4-((4-(2,5-Dimethoxy-4-(2-methyl-1-oxo-1,2-dihydro-2,7-naphthyridin-4-yl)benzyl)piperazin-1-yl)methyl)piperidine-1-carbonyl)-2-methoxyphenyl)dihydropyrimidine-2,4(1H,3H)-dione] | 10.64% | 16 nM
COc1cc(-c2cn(C)c(=O)c3cnccc23)c(OC)cc1CN1CCC(O[C@@H]2CCN(CCn3cccc(CN4CCC(=O)NC4=O)c3=O)C[C@H]2F)CC1 [Compound E2, 1-((1-(2-((3R,4R)-4-((1-(2,5-dimethoxy-4-(2-methyl-1-oxo-1,2-dihydro-2,7-naphthyridin-4-yl)benzyl)piperidin-4-yl)oxy)-3-fluoropiperidin-1-yl)ethyl)-2-oxo-1,2-dihydropyridin-3-yl)methyl)dihydropyrimidine-2,4(1H,3H)-dione] | 12.45% | 35 nM
CCCCn1cc(-c2ccc(O[C@H]3CCN(CC4CCN(CCOc5ccc(C)c(N6CCC(=O)NC6=O)c5)CC4)C[C@@H]3F)c(OC)c2)c2ccncc2c1=O [Compound E22, 1-(5-(2-(4-(((3S,4S)-4-(4-(2-butyl-1-oxo-1,2-dihydro-2,7-naphthyridin-4-yl)-2-methoxyphenoxy)-3-fluoropiperidin-1-yl)methyl)piperidin-1-yl)ethoxy)-2-methylphenyl)dihydropyrimidine-2,4(1H,3H)-dione] | 39.25% | 34 nM
CCCCn1cc(-c2ccc(CN3CCC(OC4CCN(C(=O)c5ccc(OC)c(N6CCC(=O)NC6=O)c5)CC4)CC3)cc2)c2ccncc2c1=O [Compound E13, 1-(5-(4-((1-(4-(2-butyl-1-oxo-1,2-dihydro-2,7-naphthyridin-4-yl)benzyl)piperidin-4-yl)oxy)piperidine-1-carbonyl)-2-meth-oxyphenyl)dihydro-pyrimidine-2,4(1H,3H)-dione] | 13.06% | 2 nM
COc1cc(-c2cn(C)c(=O)c3cnccc23)cc(OC)c1CN1CCC(OC2CCN(C(=O)c3cccc(N4CCC(=O)NC4=O)c3)CC2)CC1 [Compound A36, 1-(3-(4-((1-(2,6-Dimethoxy-4-(2-methyl-1-oxo-1,2-dihydro-2,7-naphthyridin-4-yl)benzyl)piperidin-4-yl)oxy)piperidine-1-carbonyl)phenyl)dihydropyrimidine-2,4(1H,3H)-dione] | 18.42% | 39 nM
CCCCn1cc(-c2ccc(O[C@@H]3CCN(CC4CCN(CCn5cccc(CN6CCC(=O)NC6=O)c5=O)CC4)C[C@H]3F)c(F)c2)c2ccncc2c1=O [Compound E17, 1-((1-(2-(4-(((3R,4R)-4-(4-(2-butyl-1-oxo-1,2-dihydro-2,7-naphthyridin-4-yl)-2-fluorophenoxy)-3-fluoropiperidin-1-yl)methyl)piperidin-1-yl)ethyl)-2-oxo-1,2-dihydropyridin-3-yl)methyl)dihydropyrimidine-2,4(1H,3H)-dione] | 18.79% | 5 nM

The next lines start with the values.

BRD9 Deg Amax % | DC50 | Compound
17.08% | 42 nM | COc1cc(-c2cn(C)c(=O)c3cnccc23)cc(F)c1CN1CCC(OC2CCN(CCn3cccc(CN4CCC(=O)NC4=O)c3=O)CC2)CC1 [Compound E24, 1-((1-(2-(4-((1-(2-fluoro-6-methoxy-4-(2-methyl-1-oxo-1,2-dihydro-2,7-naphthyridin-4-yl)benzyl)piperidin-4-yl)oxy)piperidin-1-yl)ethyl)-2-oxo-1,2-dihydropyridin-3-yl)methyl)dihydropyrimidine-2,4(1H,3H)-dione]
18.12% | 5 nM | CCCn1cc(-c2cc(OC)c(CCN3CC[C@@H](OC4CCN(C(=O)c5ccc(Cl)c(N6CCC(=O)NC6=O)c5)CC4)[C@H](F)C3)c(OC)c2)c(C)c(C)c1=O [Compound E55, 1-(2-chloro-5-(4-(((3R,4R)-1-(4-(4,5-dimethyl-6-oxo-1-propyl-1,6-dihydropyridin-3-yl)-2,6-dimethoxyphenethyl)-3-fluoropiperidin-4-yl)oxy)piperidine-1-carbonyl)phenyl)dihydropyrimidine-2,4(1H,3H)-dione]
13.08% | 2 nM | CCCCn1cc(-c2ccc(OC3CCN(CC4CCN(C(=O)c5ccc(OC)c(N6CCC(=O)NC6=O)c5)CC4)CC3)c(F)c2)c2ccncc2c1=O [Compound E34, 1-(5-(4-((4-(4-(2-butyl-1-oxo-1,2-dihydro-2,7-naphthyridin-4-yl)-2-fluorophenoxy)piperidin-1-yl)methyl)piperidine-1-carbonyl)-2-methoxyphenyl)dihydropyrimidine-2,4(1H,3H)-dione]
13.02% | 1 nM | CCCCn1cc(-c2ccc(O[C@H]3CCN(CC4CCN(C(=O)COc5ccc(C)c(N6CCC(=O)NC6=O)c5)CC4)C[C@@H]3F)c(OC)c2)c2ccncc2c1=O [Compound E25, 1-(5-(2-(4-(((3S,4S)-4-(4-(2-Butyl-1-oxo-1,2-dihydro-2,7-naphthyridin-4-yl)-2-methoxyphenoxy)-3-fluoropiperidin-1-yl)methyl)piperidin-1-yl)-2-oxoethoxy)-2-methylphenyl)dihydropyrimidine-2,4(1H,3H)-dione]

— US20220315578A1, “BRD9 BIFUNCTIONAL DEGRADERS AND THEIR METHODS OF USE” (NOVARTIS AG, priority 2019, published 2022)
